Assay results: ChEMBL document CHEMBL1131553, “Orally active indole N-oxide PDE4 inhibitors” (Bioorg Med Chem Lett, 1998)

Target: T1, Phosphodiesterase 4 (Homo sapiens, UniProt P27815+Q08499+Q07343+Q08493)
Test: Inhibition of phosphodiesterase type IV (PDE4) activity
Assay type: protein assay

Row | Structure (SMILES) | IC50 [nM]
1 | Cc1cn(Cc2ccc3c(c2)OCO3)c2cc(C(=O)Nc3c(Cl)c[n+]([O-])cc3Cl)ccc12 | 24
2 | Cc1cn(CCCCc2ccccc2)c2cc(C(=O)Nc3c(Cl)c[n+]([O-])cc3Cl)ccc12 | 46
3 | Cc1cn(Cc2nccn2Cc2ccccc2)c2cc(C(=O)Nc3c(Cl)c[n+]([O-])cc3Cl)ccc12 | 420
4 | Cc1cn(Cc2ccc3ccccc3c2)c2cc(C(=O)Nc3c(Cl)c[n+]([O-])cc3Cl)ccc12 | 22
5 | Cc1cn(CCCC2CCCCC2)c2cc(C(=O)Nc3c(Cl)c[n+]([O-])cc3Cl)ccc12 | 16

Continued, values first:

Row | IC50 [nM] | Structure (SMILES)
6 | 38 | Cc1cn(CC(C)C)c2cc(C(=O)Nc3c(Cl)c[n+]([O-])cc3Cl)ccc12
7 | 12 | Cc1cn(Cc2ccc(Cl)cc2)c2cc(C(=O)Nc3c(Cl)c[n+]([O-])cc3Cl)ccc12
8 | 500 | Cc1noc(C)c1Cn1cc(C)c2ccc(C(=O)Nc3c(Cl)c[n+]([O-])cc3Cl)cc21
9 | 80 | Cc1nc(Cn2cc(C)c3ccc(C(=O)Nc4c(Cl)c[n+]([O-])cc4Cl)cc32)cs1

System: Mus musculus
Test: In vivo inhibition of LPS induced tumor necrosis factor (TNF-alpha) in mice at 10 mg/kg
Assay type: functional

Row | Structure (SMILES) | inhibition in vivo at 10 mg/kg [%]
10 | Cc1cn(CC(C)C)c2cc(C(=O)Nc3c(Cl)c[n+]([O-])cc3Cl)ccc12 | 0
11 | Cc1cn(CCCCc2ccccc2)c2cc(C(=O)Nc3c(Cl)c[n+]([O-])cc3Cl)ccc12 | 53

System: Mus musculus
Test: In vivo inhibition of LPS induced tumor necrosis factor (TNF-alpha) in mice at 50 mg/kg
Assay type: functional

Row | Structure (SMILES) | inhibition in vivo at 50 mg/kg [%]
12 | Cc1cn(Cc2ccc3c(c2)OCO3)c2cc(C(=O)Nc3c(Cl)c[n+]([O-])cc3Cl)ccc12 | 40
13 | Cc1cn(Cc2ccc(Cl)cc2)c2cc(C(=O)Nc3c(Cl)c[n+]([O-])cc3Cl)ccc12 | 10
14 | Cc1noc(C)c1Cn1cc(C)c2ccc(C(=O)Nc3c(Cl)c[n+]([O-])cc3Cl)cc21 | 40
15 | Cc1cn(CC2CCCCC2)c2cc(C(=O)Nc3c(Cl)cncc3Cl)ccc12 | 0
16 | Cc1cn(Cc2ccccc2)c2cc(C(=O)Nc3c(Cl)cncc3Cl)ccc12 | 0
17 | Cc1cn(Cc2nccn2Cc2ccccc2)c2cc(C(=O)Nc3c(Cl)c[n+]([O-])cc3Cl)ccc12 | 38
18 | Cc1nc(Cn2cc(C)c3ccc(C(=O)Nc4c(Cl)c[n+]([O-])cc4Cl)cc32)cs1 | 52
19 | Cc1cn(CCCC2CCCCC2)c2cc(C(=O)Nc3c(Cl)c[n+]([O-])cc3Cl)ccc12 | 47

Target: T1, Phosphodiesterase 4
Assay type: protein assay

Row | Structure (SMILES) | Ki [nM]
20 | Cc1cn(Cc2ccc3c(c2)OCO3)c2cc(C(=O)Nc3c(Cl)c[n+]([O-])cc3Cl)ccc12 | 86
21 | Cc1cn(CCCCc2ccccc2)c2cc(C(=O)Nc3c(Cl)c[n+]([O-])cc3Cl)ccc12 | 135
22 | Cc1cn(Cc2nccn2Cc2ccccc2)c2cc(C(=O)Nc3c(Cl)c[n+]([O-])cc3Cl)ccc12 | 393
23 | Cc1cn(Cc2ccc3ccccc3c2)c2cc(C(=O)Nc3c(Cl)c[n+]([O-])cc3Cl)ccc12 | 51
24 | Cc1cn(CCCC2CCCCC2)c2cc(C(=O)Nc3c(Cl)c[n+]([O-])cc3Cl)ccc12 | 67

The remaining lines, values ahead:

Row | Ki [nM] | Structure (SMILES)
25 | 116 | Cc1cn(CC(C)C)c2cc(C(=O)Nc3c(Cl)c[n+]([O-])cc3Cl)ccc12
26 | 71 | Cc1cn(Cc2ccc(Cl)cc2)c2cc(C(=O)Nc3c(Cl)c[n+]([O-])cc3Cl)ccc12
27 | 225 | Cc1noc(C)c1Cn1cc(C)c2ccc(C(=O)Nc3c(Cl)c[n+]([O-])cc3Cl)cc21
28 | 64 | Cc1nc(Cn2cc(C)c3ccc(C(=O)Nc4c(Cl)c[n+]([O-])cc4Cl)cc32)cs1
